Drawing on ChEMBL document CHEMBL4219252, “Synthesis, antimycobacterial activity and influence on mycobacterial InhA and PknB of 12-membered cyclodepsipeptides” (Bioorg Med Chem, 2018), this text covers MIC and Ratio for four molecules.

What all share (assay type): functional, variant bovis BCG
Assay [1] has as its system Mycobacterium tuberculosis. Kind of assay: Antimycobacterial activity against wild type Mycobacterium bovis BCG harboring pATB45 after 48 hrs by resazurin microtiter assay.
Assay [2] concerns Mycobacterium tuberculosis. Kind of assay: Antimycobacterial activity against Mycobacterium bovis BCG harboring pATB45::inhA after 48 hrs by resazurin microtiter assay. A general note: Resazurin is reduced to fluorescent resorufin, in cell work by metabolically active cells.
The test system of assay [3] is Mycobacterium tuberculosis. Briefly: Ratio of MIC for Mycobacterium bovis BCG harboring pATB45::inhA to MIC for Mycobacterium bovis BCG harboring pATB45.
Setting [4] is: Mycobacterium tuberculosis, variant bovis BCG, 48 h, read-out: MIC.

Converted amounts (≈) assume the structure as drawn.

What is called MIC is the smallest concentration in the dilution series that meets the test's criterion for growth inhibition. In the case of `C[C@H]1OC(=O)CCC(Cc2ccccc2)NC(=O)[C@@H](NC(=O)c2ncccc2O)[C@@H](C)OC1=O` (some centres not stated), the MIC in assay [1] (setting [4]) and in assay [2] (setting [4]) was 62.5 µM (≈ 29.3 µg/mL) throughout. In addition, the Ratio in assay [3] came to 1.
On to `C[C@H]1OC(=O)COC(=O)CCC(Cc2ccccc2)NC(=O)[C@H]1NC(=O)OC(C)(C)C` (stereo in doubt; form 1), for which the MIC in assay [1] is 62.5 µM (≈ 27.2 µg/mL); in assay [2] it was 125 µM (≈ 54.3 µg/mL). Besides, the Ratio in assay [3] is 2.
Take `C[C@H]1OC(=O)COC(=O)CCC(Cc2ccccc2)NC(=O)[C@H]1NC(=O)OC(C)(C)C` (stereo in doubt; form 2): the MIC in assay [1] and in assay [2] was 7.8 µM (≈ 3.39 µg/mL) each time. In addition, in assay [3], the Ratio came to 1.
For `NNC(=O)c1ccncc1` [ISONIAZID], the MIC in assay [1] (setting [4]) was found to be 0.8 µM (≈ 0.11 µg/mL); in assay [2] (setting [4]) it was 12.5 µM (≈ 1.71 µg/mL). Also, in assay [3], the Ratio is listed as 15.6.
